Patent US20250351832A1, “PHYTOCHEMICALS AS BIOPESTICIDES AND BIOSTIMULANTS” (KAY BEE BIO ORGANICS PVT. LTD., priority 2024, published 2025)
Read-outs that look alike come from different tables or passages of the source.

Legend:
Spodoptera litura [1] = assay: whole plant or invertebrate; details: 72 h
tomato seedlings = assay: Response of tomato plants, greenhouse growth (Ex. 30); assay type: in vivo; details: tomato seedlings, dose 1 ml/gm/lit; for Plant Height 5th Day / Stem Girth 5th Day / CCI 5th Day: 5th day after application; for Plant Height 10th Day / Stem Girth 10th Day / CCI 10th Day: 10th day after application; for Plant Height % Increase over pre on 10th Day / Stem Girth % Increase over pre on 10th Day / CCI % Increase over pre on 10th Day / Root Length (cm) 10th Day / Root Length % Increase over control: 10th day; for Root Length % Increase over control: vs water control
Helicoverpa armigera [2] = details: Helicoverpa armigera 3rd instar on chickpea plants, dose 1 ml/gm/lit. spray; for % Mortality at 72 Hrs.: 72 hrs after application; for % Corrected Mortality at 72 Hrs.: corrected for water control
Aphid [3] = assay: whole plant or invertebrate; details: 48 h
Aphid [4] = details: Aphids on cotton plants, green house; dose 1 ml/gm/lit.; 10 insects/plant, 10 plants/treatment; 48 hrs
Mite [5] = details: Dose 1 ml/gm/lit.; for Total No. of dead insect at 48 Hrs.: 10 insects/treatment, 4 replications, okra leaves
Thrips [6] = assay: whole plant or invertebrate; details: in Gossypium hirsutum, 48 h
Mite [7] = details: mite on okra plants, green house, dose 1 ml/gm/lit. spray; for % Mortality at 48 Hrs. / Total No. of dead insect at 48 Hrs.: 48 hrs after application; for % Corrected Mortality at 48 Hrs.: corrected for water control
Mealy Bug [8] = details: mealy bug on cotton plants, green house, dose 1 ml/gm/lit. spray; for % Mortality at 48 Hrs. / Total No. of dead insect at 48 Hrs.: 48 hrs after application; for % Corrected Mortality at 48 Hrs.: corrected for water control
Thrips [9] = details: thrips on cotton plants, greenhouse, dose 1 ml/gm/lit. spray; for % Mortality at 48 Hrs. / Total No. of dead insect at 48 Hrs.: 48 hrs after application; for % Corrected Mortality at 48 Hrs.: corrected for water control
Aphid [10] = details: Dose 1 ml/gm/lit.; for Total No. of dead insect at 48 Hrs.: 10 insects/treatment, 4 replications, cotton leaves
Alternaria alternata [11] = assay: In vitro poisoned food technique against fungus (Ex. 20); assay type: cell-based; details: poisoned food technique, PDA medium, dose 1 ml/gm/lit., after seven days; for inhibition of growth at 1 mL or g/L: vs untreated control, read-out: % Inhibition of growth
[12] = cited from earlier work
chili seedlings = assay: Response of chili plants, greenhouse growth (Ex. 31); assay type: in vivo; details: chili seedlings, dose 1 ml/gm/lit; for CCI 5th Day / Plant Height (cm) 5th Day: 5th day after application; for CCI 10th Day / Plant Height (cm) 10th Day: 10th day after application; for CCI % Increase over pre on 10th Day / Plant Height % Increase over pre on 10th Day / Root Lenght (cm) 10th Day / Stem Girth % Increase over pre on 10th Day / Root Lenght % Increase over control: 10th day; for Root Lenght % Increase over control: vs water control
Thrips [13] = details: Thrips on cotton leaves; dose 1 ml/gm/lit.; 10 insects/treatment; 48 hrs after application
Spodoptera litura [14] = details: Spodoptera litura on castor leaves; dose 1 ml/gm/lit.; 10 insects/treatment; 72 hrs after application
Helicoverpa armigera [15] = details: Helicoverpa armigera on okra fruits, dose 1 ml/gm/lit., 72 Hrs.; for Total No. of dead insect at 72 Hrs.: 10 insects/treatment, 4 replications; for % Corrected Mortality at 72 Hrs.: corrected for water control
Spodoptera litura [16] = details: Spodoptera litura 3rd instar on cabbage plants, dose 1 ml/gm/lit. spray; for % Mortality at 72 Hrs.: 72 hrs after application; for % Corrected Mortality at 72 Hrs.: corrected for water control
Mealy Bug [17] = details: Mealy Bug on cotton leaves, dose 1 ml/gm/lit., 48 Hrs.; for Total No. of dead insect at 48 Hrs.: 10 insects/treatment, 4 replications; for % Corrected Mortality at 48 Hrs.: corrected for water control
Alternaria alternata [18] = assay: Alternaria leaf spot/blight on inoculated tomato plants (Ex. 28); assay type: in vivo; details: tomato plants, Alternaria alternata; after 7 days; dose 1 ml/gm/lit
[19] = read-out: % Corrected Mortality at 72 Hrs.
[20] = read-out: % Mortality at 72 Hrs.
[21] = read-out: % Corrected Mortality at 48 Hrs.
[22] = read-out: % Mortality at 48 Hrs.
[23] = Table 13, descriptive, no test described

SMILES: Cc1ccc(C(C)C)cc1O [Carvacrol]
- mortality at 1 mL or g/L (Spodoptera litura [1]; [19]): 42.1%
- mortality at 1 mL or g/L (Spodoptera litura [1]; [20]): 45%
- Plant Height 5th Day (tomato seedlings): 6.38 cm
- Stem Girth 5th Day (tomato seedlings): 2.05 mm
- Plant Height 10th Day (tomato seedlings): 7.23 cm
- Stem Girth 10th Day (tomato seedlings): 2.35 mm
- Plant Height % Increase over pre on 10th Day (tomato seedlings): 32.66%
- Stem Girth % Increase over pre on 10th Day (tomato seedlings): 63.42%
- CCI 5th Day (tomato seedlings): 13.62
- CCI % Increase over pre on 10th Day (tomato seedlings): 33.70%
- Root Length (cm) 10th Day (tomato seedlings): 4.25 cm
- CCI 10th Day (tomato seedlings): 15.87
- Root Length % Increase over control (tomato seedlings): 27.69%
- % Mortality at 72 Hrs. (Helicoverpa armigera [2]): 52.50%
- % Corrected Mortality at 72 Hrs. (Helicoverpa armigera [2]): 52.50%
- mortality at 1 mL or g/L (Aphid [3]; [21]): 67.7%
- mortality at 1 mL or g/L (Aphid [3]; [22]): 72.5%
- Total No. of dead insect at 48 Hrs. (Aphid [4]): 72.50
- Total No. of dead insect at 48 Hrs. (Mite [5]): 4.25
- % Corrected Mortality at 48 Hrs. (Mite [5]; 48 hrs): 37.84%
- % Mortality at 48 Hrs. (Mite [5]; 48 hrs): 42.50%
- mortality at 1 mL or g/L (Thrips [6]; [21]): 25.7%
- mortality at 1 mL or g/L (Thrips [6]; [22]): 35%
- % Mortality at 48 Hrs. (Mite [7]): 47.50%
- Total No. of dead insect at 48 Hrs. (Mite [7]): 47.50
- % Corrected Mortality at 48 Hrs. (Mite [7]): 44.74%
- % Mortality at 48 Hrs. (Mealy Bug [8]): 65.00%
- Total No. of dead insect at 48 Hrs. (Mealy Bug [8]): 65.00
- % Corrected Mortality at 48 Hrs. (Mealy Bug [8]): 61.11%
- % Mortality at 48 Hrs. (Thrips [9]): 32.50%
- Total No. of dead insect at 48 Hrs. (Thrips [9]): 32.50
- % Corrected Mortality at 48 Hrs. (Thrips [9]): 25.00%
- Total No. of dead insect at 48 Hrs. (Aphid [10]): 7.00
- % Corrected Mortality at 48 Hrs. (Aphid [10]): 65.71%
- % Mortality at 48 Hrs. (Aphid [10]): 70.00%
- Mean colony Diameter (mm) (Alternaria alternata [11]): 52.50 mm
- inhibition of growth at 1 mL or g/L (Alternaria alternata [11]): 40.3%
- Acaricidal Activity - Mode of action [12, 23]: Has acaricidal activities
- Antifungal Activity - Mode of action [12, 23]: Antifungal activities
- Antioxidant Activity - Mode of action [12, 23]: Antioxidant activities
- Bactericidal Activity - Mode of action [12, 23]: Exhibits antibacterial
- Insecticidal Activities - Mode of action [12, 23]: Insecticidal toxicities
- Nematicidal Activity - Mode of action [12, 23]: Effective against plant
- CCI 5th Day (chili seedlings): 14.95
- Plant Height (cm) 5th Day (chili seedlings): 6.33 cm
- CCI % Increase over pre on 10th Day (chili seedlings): 64.84%
- Plant Height % Increase over pre on 10th Day (chili seedlings): 65.77%
- Root Lenght (cm) 10th Day (chili seedlings): 3.97 cm
- Stem Girth % Increase over pre on 10th Day (chili seedlings): 49.25%
- CCI 10th Day (chili seedlings): 15
- Plant Height (cm) 10th Day (chili seedlings): 7.57 cm
- Root Lenght % Increase over control (chili seedlings): 44.94%
- Total No. of dead insect at 48 Hrs. (Thrips [13]): 3.50
- Total No. of dead insect at 72 Hrs. (Spodoptera litura [14]): 4.50
- Total No. of dead insect at 72 Hrs. (Helicoverpa armigera [15]): 5.50
- % Mortality at 72 Hrs. (Helicoverpa armigera [15]): 55.00%
- % Corrected Mortality at 72 Hrs. (Helicoverpa armigera [15]): 55.00%
- % Mortality at 72 Hrs. (Spodoptera litura [16]): 47.50%
- % Corrected Mortality at 72 Hrs. (Spodoptera litura [16]): 44.74%
- Total No. of dead insect at 48 Hrs. (Mealy Bug [17]): 6.75
- % Mortality at 48 Hrs. (Mealy Bug [17]): 67.50%
- % Corrected Mortality at 48 Hrs. (Mealy Bug [17]): 65.79%
- % Disease reduction over Control (Alternaria alternata [18]): 47.93%

SMILES: O=c1oc2c(O)c(O)cc3c(=O)oc4c(O)c(O)cc1c4c23 [Ellagic acid]
- mortality at 1 mL or g/L (Spodoptera litura [1]; [19]): 57.9%
- mortality at 1 mL or g/L (Spodoptera litura [1]; [20]): 60%
- Plant Height 5th Day (tomato seedlings): 7.09 cm
- Stem Girth 5th Day (tomato seedlings): 1.54 mm
- Plant Height 10th Day (tomato seedlings): 8.18 cm
- Stem Girth 10th Day (tomato seedlings): 2.19 mm
- Plant Height % Increase over pre on 10th Day (tomato seedlings): 36.11%
- Stem Girth % Increase over pre on 10th Day (tomato seedlings): 62.87%
- CCI 5th Day (tomato seedlings): 13.39
- CCI % Increase over pre on 10th Day (tomato seedlings): 28.96%
- Root Length (cm) 10th Day (tomato seedlings): 4.48 cm
- CCI 10th Day (tomato seedlings): 14.56
- Root Length % Increase over control (tomato seedlings): 34.64%
- % Mortality at 72 Hrs. (Helicoverpa armigera [2]): 70.00%
- % Corrected Mortality at 72 Hrs. (Helicoverpa armigera [2]): 70.00%
- mortality at 1 mL or g/L (Aphid [3]; [21]): 70.6%
- mortality at 1 mL or g/L (Aphid [3]; [22]): 75%
- Total No. of dead insect at 48 Hrs. (Aphid [4]): 75.00
- Total No. of dead insect at 48 Hrs. (Mite [5]): 5.00
- % Corrected Mortality at 48 Hrs. (Mite [5]; 48 hrs): 45.95%
- mortality at 1 mL or g/L (Thrips [6]; [21]): 25.7%
- mortality at 1 mL or g/L (Thrips [6]; [22]): 35%
- % Mortality at 48 Hrs. (Mite [7]): 52.50%
- Total No. of dead insect at 48 Hrs. (Mite [7]): 52.50
- % Corrected Mortality at 48 Hrs. (Mite [7]): 50.00%
- % Mortality at 48 Hrs. (Mealy Bug [8]): 57.50%
- Total No. of dead insect at 48 Hrs. (Mealy Bug [8]): 57.50
- % Corrected Mortality at 48 Hrs. (Mealy Bug [8]): 52.78%
- % Mortality at 48 Hrs. (Thrips [9]): 32.50%
- Total No. of dead insect at 48 Hrs. (Thrips [9]): 32.50
- % Corrected Mortality at 48 Hrs. (Thrips [9]): 25.00%
- Total No. of dead insect at 48 Hrs. (Aphid [10]): 7.25
- % Corrected Mortality at 48 Hrs. (Aphid [10]): 68.57%
- % Mortality at 48 Hrs. (Aphid [10]): 72.50%
- Mean colony Diameter (mm) (Alternaria alternata [11]): 44.00 mm
- inhibition of growth at 1 mL or g/L (Alternaria alternata [11]): 50%
- Acaricidal Activity - Mode of action [12, 23]: Shows acaricidal activities
- Antifungal Activity - Mode of action [12, 23]: Fungicidal activities
- Antioxidant Activity - Mode of action [12, 23]: Exhibit antioxidant
- Bactericidal Activity - Mode of action [12, 23]: Exhibits bactericidal
- Insecticidal Activities - Mode of action [12, 23]: Inhibit the growth, food
- Phytotonic Effect ([12]; Table 13, effect on plants, descriptive): Reduces plant
- CCI 5th Day (chili seedlings): 16.35
- Plant Height (cm) 5th Day (chili seedlings): 5.77 cm
- CCI % Increase over pre on 10th Day (chili seedlings): 67.49%
- Plant Height % Increase over pre on 10th Day (chili seedlings): 62.60%
- Root Lenght (cm) 10th Day (chili seedlings): 3.92 cm
- Stem Girth % Increase over pre on 10th Day (chili seedlings): 51.20%
- CCI 10th Day (chili seedlings): 16.95
- Plant Height (cm) 10th Day (chili seedlings): 6 cm
- Root Lenght % Increase over control (chili seedlings): 43.41%
- Total No. of dead insect at 48 Hrs. (Thrips [13]): 3.50
- Total No. of dead insect at 72 Hrs. (Spodoptera litura [14]): 6.00
- Total No. of dead insect at 72 Hrs. (Helicoverpa armigera [15]): 7.25
- % Mortality at 72 Hrs. (Helicoverpa armigera [15]): 72.50%
- % Corrected Mortality at 72 Hrs. (Helicoverpa armigera [15]): 72.50%
- % Mortality at 72 Hrs. (Spodoptera litura [16]): 55.00%
- % Corrected Mortality at 72 Hrs. (Spodoptera litura [16]): 52.63%
- Total No. of dead insect at 48 Hrs. (Mealy Bug [17]): 6.00
- % Mortality at 48 Hrs. (Mealy Bug [17]): 60.00%
- % Corrected Mortality at 48 Hrs. (Mealy Bug [17]): 57.89%
- % Disease reduction over Control (Alternaria alternata [18]): 66.12%
